Assay results from patent US12428406B2 (PMV Pharmaceuticals, Inc., priority 2019, dated 2025).

Target: T1, p53 Y220C (Homo sapiens, UniProt P04637, Y220C)
T1 construct: The recombinant protein was a truncation mutant containing only amino acids 94-312 of p53; made in house; host or cells: E. coli
Assay: In vitro DNA binding activity assay (HTRF / TR-FRET): stabilization of p53 Y220C and increase of its DNA binding activity
Assay type: biochemical
Conditions: recombinant His-tagged p53 Y220C DNA binding domain (aa 94-312), biotin-labeled consensus DNA, incubated at 27° C. or 29° C. for 60 min
In short: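 Homogeneous time-resolved fluorescence with E. coli-derived p53 Y220C and biotinylated consensus DNA. Room-temperature incubations of 15 and 20 min precede reading. SC150 denotes the compound concentration required for 50% increased DNA binding.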

T1 sequence (P04637 94-312, change not shown): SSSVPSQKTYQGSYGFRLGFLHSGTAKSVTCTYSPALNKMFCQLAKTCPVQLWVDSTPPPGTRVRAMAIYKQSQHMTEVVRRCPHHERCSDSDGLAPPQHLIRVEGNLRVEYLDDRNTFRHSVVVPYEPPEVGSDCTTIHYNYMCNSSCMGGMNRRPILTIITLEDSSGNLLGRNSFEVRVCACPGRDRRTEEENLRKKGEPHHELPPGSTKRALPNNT

Row | SMILES | SC150 (concentration of the compound required to increase the DNA binding activity by 50%)
1 | CCC(=O)OC(COC)CN1CCC(Nc2cccc3c2cc(C#CCNc2ccc(S(N)(=O)=O)cc2OC)n3CC(F)(F)F)CC1 (centres unmarked) [Compound 610A, 1-methoxy-3-{4-[(2-{3-[(2-methoxy-4-sulfamoylphenyl)amino]prop-1-yn-1-yl}-1-(2,2,2-trifluoroethyl)-1H-indol-4-yl)amino]piperidin-1-yl} propan-2-yl propanoate] | + (+ = 0 μM ≤ SC150 < 0.05 μM)
2 | CNC(=O)c1ccc(NCC#Cc2cc3c(N[C@H]4CCN(C(C)(C)C)C[C@H]4F)cccc3n2CC(F)(F)F)c(OC)c1 [Compound 1073A, 4-{[3-(4-{[(3R,4S)-1-tert-butyl-3-fluoropiperidin-4-yl]amino}-1-(2,2,2-trifluoroethyl)-1H-indol-2-yl)prop-2-yn-1-yl]amino}-3-methoxy-N-methylbenzamide] | + (+ = 0 μM ≤ SC150 < 0.05 μM)
3 | CNC(=O)c1cc(OC)c(NCC#Cc2cc3c(N[C@H]4CCN(C)C[C@H]4F)cccc3n2CC(F)(F)F)cc1F [Compound 827A, 2-fluoro-4-{[3-(4-{[(3R,4S)-3-fluoro-1-methylpiperidin-4-yl]amino}-1-(2,2,2-trifluoroethyl)-1H-indol-2-yl)prop-2-yn-1-yl]amino}-5-methoxy-N-methylbenzamide] | + (+ = 0 μM ≤ SC150 < 0.05 μM)
4 | CNC(=O)c1ccc(NCC#Cc2cc3c(NC4CCN(CC(C)O)CC4)cccc3n2CC(F)(F)F)c(OC)c1 (centres unmarked) [Compound 596A, 4-{[3-(4-{[1-(2-hydroxypropyl)piperidin-4-yl]amino}-1-(2,2,2-trifluoroethyl)-1H-indol-2-yl)prop-2-yn-1-yl]amino}-3-methoxy-N-methylbenzamide] | + (+ = 0 μM ≤ SC150 < 0.05 μM)
5 | COc1cc(C(=O)N(C)C)ccc1NCC#Cc1cc2c(N[C@H]3CCN(C)C[C@H]3F)cccc2n1CC(F)(F)F (racemic) [Compound 815A, rac-4-{[3-(4-{[(3R,4S)-3-fluoro-1-methylpiperidin-4-yl]amino}-1-(2,2,2-trifluoroethyl)-1H-indol-2-yl)prop-2-yn-1-yl]amino}-3-methoxy-N,N-dimethylbenzamide] | + (+ = 0 μM ≤ SC150 < 0.05 μM)
6 | COCC(O)CN1CCC(Nc2cccc3c2cc(C#CCNc2c(F)cc(S(C)(=O)=O)cc2OC)n3CC(F)(F)F)CC1 (centres unmarked) [Compound 714A] | ++++ (++++ = 0.2 μM ≤ SC150 < 1 μM)
7 | COCC(O)CN1CCC(Nc2cccc3c2cc(C#CCNc2cc(F)c(S(C)(=O)=O)cc2OC)n3CC(F)(F)F)CC1 (centres unmarked) [Compound 677A, 1-{4-[(2-{3-[(5-fluoro-4-methanesulfonyl-2-methoxyphenyl)amino]prop-1-yn-1-yl}-1-(2,2,2-trifluoroethyl)-1H-indol-4-yl)amino]piperidin-1-yl}-3-methoxypropan-2-ol] | + (+ = 0 μM ≤ SC150 < 0.05 μM)
8 | CN(C)c1cc(S(C)(=O)=O)ccc1OCC#Cc1cc2c(N[C@H]3CC[C@@H](N(C)C)CC3)cccc2n1CC(F)(F)F [Compound 111A, (1S,4S)-N^4-(2-{3-[2-(dimethylamino)-4-methanesulfonyl-phenoxy]prop-1-yn-1-yl}-1-(2,2,2-trifluoroethyl)-1H-indol-4-yl)-N^1,N^1-dimethylcyclohexane-1,4-diamine] | ++++ (++++ = 0.2 μM ≤ SC150 < 1 μM)
9 | COc1cc(C(=O)O)ccc1NCC#Cc1cc2c(N[C@@H]3CCNC[C@@H]3F)cccc2n1CC(F)(F)F [Compound 858A] | + (+ = 0 μM ≤ SC150 < 0.05 μM)
10 | COc1cc(C(=O)NCC(CO)OC)ccc1NCC#Cc1cc2c(N[C@@H]3CCN(C)C[C@@H]3F)cccc2n1CC(F)(F)F (single isomer, unassigned) [Compound 966A] | + (+ = 0 μM ≤ SC150 < 0.05 μM)

The remaining lines, values ahead:

Row | SC150 (concentration of the compound required to increase the DNA binding activity by 50%) | SMILES
11 | + (+ = 0 μM ≤ SC150 < 0.05 μM) | COc1cc(S(=O)(=O)NCC(O)CO)ccc1NCC#Cc1cc2c(NC3CCS(=O)(=O)CC3)cccc2n1CC(F)(F)F (centres unmarked) [Compound 1042A, N-(2,3-dihydroxypropyl)-4-[(3-{4-[(1,1-dioxo-1λ^6-thian-4-yl)amino]-1-(2,2,2-trifluoroethyl)-1 H-indol-2-yl}prop-2-yn-1-yl)amino]-3-methoxybenzene-1-sulfonamide]
12 | + (+ = 0 μM ≤ SC150 < 0.05 μM) | COc1cc(S(=O)(=O)N2CCN(C(C)=O)CC2)ccc1NCC#Cc1cc2c(NC3CCN(CC(O)CO)CC3)cccc2n1CC(F)(F)F (centres unmarked) [Compound 577A, 1-[4-(4-{[3-(4-{[1-(2,3-dihydroxypropyl)piperidin-4-yl]amino}-1-(2,2,2-trifluoroethyl)-1H-indol-2-yl)prop-2-yn-1-yl]amino}-3-methoxybenzenesulfonyl)piperazin-1-yl]ethan-1-one]
13 | + (+ = 0 μM ≤ SC150 < 0.05 μM) | COc1cc(C(N)=O)ccc1NCC#Cc1cc2c(N[C@H]3CC[C@H](N(C)C)CC3)cccc2n1CC(F)(F)F [Compound 73A, 3-methoxy-4-{[3-(4-{[(1R,4R)-4-(dimethyl-amino)cyclohexyl]amino}-1-(2,2,2-trifluoroethyl)-1H-indol-2-yl)prop-2-yn-1-yl]amino}benzamide]
14 | + (+ = 0 μM ≤ SC150 < 0.05 μM) | COc1cc(S(=O)(=O)Nc2cc(C)on2)ccc1NCC#Cc1cc2c(N[C@H]3CC[C@H](N(C)C)CC3)cccc2n1CC(F)(F)F [Compound 55A, 3-methoxy-N-(5-methyl-1,2-oxazol-3-yl)-4-{[3-(4-{[(1R,4R)-4-(dimethylamino)cyclohexyl]amino}-1-(2,2,2-trifluoroethyl)-1H-indol-2-yl)prop-2-yn-1-yl]amino}benzene-1-sulfonamide]
15 | + (+ = 0 μM ≤ SC150 < 0.05 μM) | COc1cc(S(C)(=O)=O)ccc1NCC#Cc1cc2c(N[C@H]3CC[C@@H](N4CC5(COC5)C4)CC3)cccc2n1CC(F)(F)F [Compound 203A, 2-{3-[(4-methanesulfonyl-2-methoxyphenyl)amino]prop-1-yn-1-yl}-N-[(1S,4S)-4-{2-oxa-6-azaspiro[3.3]heptan-6-yl}cyclohexyl]-1-(2,2,2-trifluoroethyl)-1H-indol-4-amine]
16 | + (+ = 0 μM ≤ SC150 < 0.05 μM) | CN(C)[C@H]1CC[C@@H](Nc2cccc3c2cc(C#CCNc2ccc(S(C)(=O)=O)cc2O)n3CC(F)(F)F)CC1 [Compound 79A, 5-methanesulfonyl-2-{[3-(4-{[(1R,4R)-4-(dimethylamino)cyclohexyl]amino}-1-(2,2,2-trifluoroethyl)-1H-indol-2-yl)prop-2-yn-1-yl]amino}phenol]
17 | + (+ = 0 μM ≤ SC150 < 0.05 μM) | COc1cc(S(=O)(=O)N2CCOCC2)ccc1NCC#Cc1cc2c(N[C@H]3CC[C@H](N(C)C)CC3)cccc2n1CC(F)(F)F [Compound 67A, (1R,4R)-N^4-[2-(3-{[2-methoxy-4-(morpholine-4-sulfonyl)phenyl]amino}prop-1-yn-1-yl)-1-(2,2,2-trifluoro-ethyl)-1H-indol-4-yl]-N^1,N^1-dimethyl-cyclohexane-1,4-diamine]
18 | + (+ = 0 μM ≤ SC150 < 0.05 μM) | COc1cc(S(C)(=O)=O)ccc1NCC#Cc1cc2c(NC3CCN(CC4CCCO4)CC3)cccc2n1CC(F)(F)F (centres unmarked) [Compound 688A, 2-{3-[(4-methanesulfonyl-2-methoxyphenyl)amino]prop-1-yn-1-yl}-N-{1-[(oxolan-2-yl)methyl]piperidin-4-yl}-1-(2,2,2-trifluoroethyl)-1H-indol-4-amine]
19 | + (+ = 0 μM ≤ SC150 < 0.05 μM) | COc1cc(S(C)(=O)=O)ccc1NCC#Cc1cc2c(N[C@H]3CC[C@H](N4CC5(CCOCC5)C4)CC3)cccc2n1CC(F)(F)F [Compound 294A, 2-{3-[(4-methane-sulfonyl-2-methoxy-phenyl)amino]prop-1-yn-1-yl}-N-[(1R,4R)-4-{7-oxa-2-azaspiro[3.5]nonan-2-yl}cyclo-hexyl]-1-(2,2,2-trifluoro-ethyl)-1H-indol-4-amine]
20 | + (+ = 0 μM ≤ SC150 < 0.05 μM) | COCC(O)CN1CCC(Nc2cccc3c2cc(C#CCNc2ccc(S(C)(=O)=O)cc2OCCO)n3CC(F)(F)F)CC1 (centres unmarked) [Compound 644A, 1-(4-{[2-(3-{[2-(2-hydroxyethoxy)-4-methanesulfonylphenyl]amino}prop-1-yn-1-yl)-1-(2,2,2-trifluoroethyl)-1H-indol-4-yl]amino}piperidin-1-yl)-3-methoxypropan-2-ol]
21 | + (+ = 0 μM ≤ SC150 < 0.05 μM) | COc1cc(S(=O)(=O)Nc2ccon2)ccc1NCC#Cc1cc2c(NC3CCN(C)CC3)cccc2n1CC(F)(F)F [Compound 469A, 3-methoxy-4-[(3-{4-[(1-methylpiperidin-4-yl)amino]-1-(2,2,2-trifluoroethyl)-1H-indol-2-yl}prop-2-yn-1-yl)amino]-N-(1,2-oxazol-3-yl)benzene-1-sulfonamide]
22 | + (+ = 0 μM ≤ SC150 < 0.05 μM) | COc1cc(S(N)(=O)=O)ccc1NCC#Cc1cc2c(NC3CCN(C[C@@H]4COC(C)(C)O4)CC3)cccc2n1CC(F)(F)F [Compound 568A, 4-[(3-{4-[(1-{[(4R)-2,2-dimethyl-1,3-dioxolan-4-yl]methyl}piperidin-4-yl)amino]-1-(2,2,2-trifluoroethyl)-1H-indol-2-yl}prop-2-yn-1-yl)amino]-3-methoxybenzene-1-sulfonamide]
23 | + (+ = 0 μM ≤ SC150 < 0.05 μM) | COc1cc(S(=O)(=O)CCO)ccc1NCC#Cc1cc2c(N[C@@H]3CCN(C)C[C@@H]3F)cccc2n1CC(F)(F)F [Compound 939A, 2-(4-{[3-(4-{[(3S,4R)-3-fluoro-1-methylpiperidin-4-yl]amino}-1-(2,2,2-trifluoroethyl)-1H-indol-2-yl)prop-2-yn-1-yl]amino}-3-methoxybenzenesulfonyl)ethan-1-ol]
